Legend:
[1] = Toxicity in po dosed Swiss albino mouse; assay type: organism-based; details: in vivo
Mus musculus [2] = experiment: Hepatotoxicity in Swiss albino mouse assessed as plasma ALT level at 3 mg/kg, po after 30 days (reference value: 66.00+/-4.18 U/mL); assay type: toxicity, organism-based; set-up: dose 3 mg/kg, route oral; details: in vivo, 720 h
Mus musculus [3] = experiment: Increase of SOD level in Swiss albino mouse liver assessed per mg of protein at 3 mg/kg, po after 30 days (reference value: 250.16+/-7.46 U); assay type: functional
Mus musculus [4] = experiment: Toxicity in Swiss albino mouse assessed as decrease in final body weight at 1.2 mg/kg, po administered for 30 days; assay type: organism-based; set-up: dose 1.2 mg/kg, route oral; details: in vivo, 720 h
Mus musculus [5] = experiment: Toxicity in Swiss albino mouse assessed as hemoglobin level at 3 mg/kg, po after 30 days (reference value: 12.56+/-0.43 gm/dL); assay type: organism-based; set-up: dose 3 mg/kg, route oral; details: in vivo, 720 h
Mus musculus [6] = experiment: Increase of TRxR level in Swiss albino mouse liver assessed per mg of protein at 3 mg/kg, po after 30 days (reference value: 3.20+/-0.134 U); assay type: functional
[7] = Induction of chromosomal aberration in Swiss albino mouse bone marrow cell at 3 mg/kg, po after 30 days (reference value: 14.88+/-0.99 %); assay type: organism-based; set-up: dose 3 mg/kg, route oral; details: in vivo, 720 h
Mus musculus [8] = experiment: Nephrotoxicity in Swiss albino mouse assessed as serum creatinine level at 3 mg/kg, po after 30 days (reference value: 9.40+/-0.48 mg/dL); assay type: toxicity, organism-based; set-up: dose 3 mg/kg, route oral; details: in vivo, 720 h
Mus musculus [9] = experiment: Toxicity in Swiss albino mouse assessed as loss of body weight at 3 mg/kg, po administered for 30 days; assay type: organism-based; set-up: dose 3 mg/kg, route oral; details: in vivo, 720 h
Mus musculus [10] = experiment: Increase of GST level in Swiss albino mouse liver assessed as CDNB-GSH conjugate per mg of protein at 3 mg/kg, po after 30 days (reference value: 95.66+/-4.0 nmol/min); assay type: functional
Mus musculus [11] = experiment: Increase of CAT level in Swiss albino mouse liver assessed per mg of protein at 3 mg/kg, po after 30 days (reference value: 41.66+/-1.33 U); assay type: functional
Mus musculus [12] = experiment: Increase of GSH level in Swiss albino mouse liver assessed per mg of protein at 3 mg/kg, po after 30 days (reference value: 46.87+/-1.88 nmol); assay type: functional
Mus musculus [13] = experiment: Hepatotoxicity in Swiss albino mouse assessed as plasma AST level at 3 mg/kg, po after 30 days (reference value: 179.00+/-4.18 U/mL); assay type: toxicity, organism-based; set-up: dose 3 mg/kg, route oral; details: in vivo, 720 h
Mus musculus [14] = experiment: Hepatotoxicity in Swiss albino mouse assessed as TBARS production per mg of protein at 3 mg/kg, po after 30 days (reference value: 0.26+/-0.02 nmol); assay type: toxicity, organism-based; set-up: dose 3 mg/kg, route oral; details: in vivo, 720 h
Mus musculus [15] = experiment: Nephrotoxicity in Swiss albino mouse assessed as BUN level at 3 mg/kg, po after 30 days (reference value: 21.57+/-0.92 mg/dL); assay type: toxicity, organism-based; set-up: dose 3 mg/kg, route oral; details: in vivo, 720 h
Mus musculus [16] = experiment: Increase of Gpx level in Swiss albino mouse liver assessed as NADPH oxidation per mg of protein at 3 mg/kg, po after 30 days (reference value: 0.646+/-0.030 umol); assay type: functional
Mus musculus [17] = experiment: Hepatotoxicity in Swiss albino mouse assessed as necrosis at 3 mg/kg, po after 30 days by histopathology analysis; assay type: toxicity, organism-based; set-up: dose 3 mg/kg, route oral; details: in vivo, 720 h
Mus musculus [18] = experiment: Increase of Gpx level in Swiss albino mouse liver assessed as NADPH oxidation per mg of protein at 3 mg/kg, po after 30 days relative to control; assay type: functional
Mus musculus [19] = experiment: Hepatotoxicity in Swiss albino mouse assessed as inflammation at 3 mg/kg, po after 30 days by histopathology analysis; assay type: toxicity, organism-based; set-up: dose 3 mg/kg, route oral; details: in vivo, 720 h
Mus musculus [20] = experiment: Nephrotoxicity in Swiss albino mouse assessed as inflammation at 3 mg/kg, po after 30 days by histopathology analysis; assay type: toxicity, organism-based; set-up: dose 3 mg/kg, route oral; details: in vivo, 720 h
Mus musculus [21] = experiment: Nephrotoxicity in Swiss albino mouse assessed as lesion at 3 mg/kg, po after 30 days by histopathology analysis; assay type: toxicity, organism-based; set-up: dose 3 mg/kg, route oral; details: in vivo, 720 h
Mus musculus [22] = experiment: Hepatotoxicity in Swiss albino mouse assessed as lesion at 3 mg/kg, po after 30 days by histopathology analysis; assay type: toxicity, organism-based; set-up: dose 3 mg/kg, route oral; details: in vivo, 720 h
Mus musculus [23] = experiment: Nephrotoxicity in Swiss albino mouse assessed as necrosis at 3 mg/kg, po after 30 days by histopathology analysis; assay type: toxicity, organism-based; set-up: dose 3 mg/kg, route oral; details: in vivo, 720 h
Mus musculus [24] = experiment: Increase of TRxR level in Swiss albino mouse liver assessed per mg of protein at 3 mg/kg, po after 30 days relative to control; assay type: functional
Mus musculus [25] = experiment: Increase of TRxR level in Swiss albino mouse liver assessed per mg of protein at 1.2 mg/kg, po after 30 days (reference value: 3.20+/-0.134 U); assay type: functional
Mus musculus [26] = experiment: Nephrotoxicity in Swiss albino mouse assessed as BUN level at 1.2 mg/kg, po after 30 days (reference value: 21.57+/-0.92 mg/dL); assay type: toxicity, organism-based; set-up: dose 1.2 mg/kg, route oral; details: in vivo, 720 h
Mus musculus [27] = experiment: Hepatotoxicity in Swiss albino mouse assessed as infiltration of mononuclear cells at 1.2 mg/kg after 30 days by histopathology analysis; assay type: toxicity, organism-based; set-up: dose 1.2 mg/kg; details: in vivo, 720 h
Mus musculus [28] = experiment: Nephrotoxicity in Swiss albino mouse assessed as serum creatinine level at 1.2 mg/kg, po after 30 days (reference value: 9.40+/-0.48 mg/dL); assay type: toxicity, organism-based; set-up: dose 1.2 mg/kg, route oral; details: in vivo, 720 h
Mus musculus [29] = experiment: Nephrotoxicity in Swiss albino mouse assessed as infiltration of mononuclear cells at 1.2 mg/kg after 30 days by histopathology analysis; assay type: toxicity, organism-based; set-up: dose 1.2 mg/kg; details: in vivo, 720 h
Mus musculus [30] = experiment: Increase of GSH level in Swiss albino mouse liver assessed per mg of protein at 1.2 mg/kg, po after 30 days (reference value: 46.87+/-1.88 nmol); assay type: functional
Mus musculus [31] = experiment: Toxicity in Swiss albino mouse assessed as hemoglobin level at 1.2 mg/kg, po after 30 days (reference value: 12.56+/-0.43 gm/dL); assay type: organism-based; set-up: dose 1.2 mg/kg, route oral; details: in vivo, 720 h
Mus musculus [32] = experiment: Increase of Gpx level in Swiss albino mouse liver assessed as NADPH oxidation per mg of protein at 1.2 mg/kg, po after 30 days (reference value: 0.646+/-0.030 umol); assay type: functional
Mus musculus [33] = experiment: Hepatotoxicity in Swiss albino mouse assessed as plasma ALT level at 1.2 mg/kg, po after 30 days (reference value: 66.00+/-4.18 U/mL); assay type: toxicity, organism-based; set-up: dose 1.2 mg/kg, route oral; details: in vivo, 720 h
Mus musculus [34] = experiment: Increase of SOD level in Swiss albino mouse liver assessed per mg of protein at 1.2 mg/kg, po after 30 days (reference value: 250.16+/-7.46 U); assay type: functional
Mus musculus [35] = experiment: Hepatotoxicity in Swiss albino mouse assessed as TBARS production per mg of protein at 1.2 mg/kg, po after 30 days (reference value: 0.26+/-0.02 nmol); assay type: toxicity, organism-based; set-up: dose 1.2 mg/kg, route oral; details: in vivo, 720 h
Mus musculus [36] = experiment: Increase of CAT level in Swiss albino mouse liver assessed per mg of protein at 1.2 mg/kg, po after 30 days (reference value: 41.66+/-1.33 U); assay type: functional
[37] = Induction of chromosomal aberration in Swiss albino mouse bone marrow cell at 1.2 mg/kg, po after 30 days (reference value: 14.88+/-0.99 %); assay type: organism-based; set-up: dose 1.2 mg/kg, route oral; details: in vivo, 720 h
Mus musculus [38] = experiment: Hepatotoxicity in Swiss albino mouse assessed as plasma AST level at 1.2 mg/kg, po after 30 days (reference value: 179.00+/-4.18 U/mL); assay type: toxicity, organism-based; set-up: dose 1.2 mg/kg, route oral; details: in vivo, 720 h
Mus musculus [39] = experiment: Increase of GST level in Swiss albino mouse liver assessed as CDNB-GSH conjugate per mg of protein at 1.2 mg/kg, po after 30 days (reference value: 95.66+/-4.0 nmol/min); assay type: functional

Compound	LD50 [1] [mg/kg]	Activity (Mus musculus [2]) [U/ml]	Activity (Mus musculus [3]) [U]	Activity (Mus musculus [4])	Activity (Mus musculus [5]) [g/dL]	Activity (Mus musculus [6]) [U]	Activity [7] [%]	Activity (Mus musculus [8]) [mg/dL]	Activity (Mus musculus [9])	Activity (Mus musculus [10]) [nM]	Activity (Mus musculus [11]) [U]	Activity (Mus musculus [12]) [nM]	Activity (Mus musculus [13]) [U/ml]	Activity (Mus musculus [14]) [nM]	Activity (Mus musculus [15]) [mg/dL]	Activity (Mus musculus [16]) [U]	also measured
N#C[Se]CCCCCN1C(=O)c2cccc3cccc(c23)C1=O	> 1000	61	258.56	Toxic	13.08	4.61	13.39	6.4	Non-toxic	104.41	45.48	50.94	160	0.24	160	0.864	
N#C[Se]CCCCCN1C(=O)c2cccc3c(Cl)ccc(c23)C1=O	> 1000	64	268.71	Toxic	12.86	4.21	13.97	7.45	Non-toxic	106.58	46.6	59.34	142	0.26	142	0.995	
N#C[Se]CCCCCN1C(=O)c2cccc3cc([N+](=O)[O-])cc(c23)C1=O	> 1000	62	267.68	Toxic	12.76	4.15	13.85	7.86	Non-toxic	97.29	44.06	55.82	154	0.25		0.938	
N#C[Se]CCCCCN1C(=O)c2cccc3c(N)ccc(c23)C1=O	> 1000	59	296.03	Toxic	13.24		12.7	7.13	Non-toxic	116.19	53.04	60.4	148	0.22	148		Activity (Mus musculus [17]): Non-toxic; Activity (Mus musculus [18]): 63.77%; Activity (Mus musculus [19]): Non-toxic; Activity (Mus musculus [20]): Non-toxic; Activity (Mus musculus [21]): Non-toxic; Activity (Mus musculus [22]): Non-toxic; Activity (Mus musculus [23]): Non-toxic; Activity (Mus musculus [24]): 53.43%
O=[Se]([O-])[O-].[Na+].[Na+] [SODIUM SELENITE]	25																Activity (Mus musculus [25]): 3.75 U; Activity (Mus musculus [26]): 22.6 mg/dL; Activity (Mus musculus [27]): Toxic; Activity (Mus musculus [28]): 8.47 mg/dL; Activity (Mus musculus [29]): Toxic; Activity (Mus musculus [30]): 44.84 nM; Activity (Mus musculus [31]): 11.28 g/dL; Activity (Mus musculus [32]): 0.692 U; Activity (Mus musculus [33]): 72 U/ml; Activity (Mus musculus [34]): 236.98 U; Activity (Mus musculus [35]): 0.3 nM; Activity (Mus musculus [36]): 36.6 U; Activity [37]: 16.4%; Activity (Mus musculus [38]): 191 U/ml; Activity (Mus musculus [39]): 85.31 nM

— ChEMBL document CHEMBL1629707, “Naphthalimide based novel organoselenocyanates: finding less toxic forms of selenium that would retain protective efficacy” (Bioorg Med Chem Lett, 2010)
